Active and inactive are the calls of the source. No cut-off for these calls is given here.
What was measured:
Human betaherpesvirus 5 [1] = assay: Antiviral activity against HCMV AD169 infected in HEL cells by viral CPE assay; type: functional, organism-based; settings: Human betaherpesvirus 5, AD169, HEL
Human alphaherpesvirus 3 [2] = assay: Antiviral activity against thymidine kinase negative VZV 07/01 infected in HEL cells by plaque formation assay; type: functional, organism-based; settings: Human alphaherpesvirus 3, 07/01, HEL
[3] = Selectivity index, ratio of cytotoxic CC50 for HEL cells to EC50 for HSV1 KOS
[4] = Selectivity index, ratio of cytotoxic CC50 for HEL cells to EC50 for VZV Oka
HEL = assay: Cytotoxicity against HEL cells assessed as effect on cell growth incubated for 3 days by Coulter counter assay; type: cell-based; settings: human, 72 h
Human betaherpesvirus 5 [5] = assay: Antiviral activity against HCMV Davis infected in HEL cells by viral CPE assay; type: functional, organism-based; settings: Human betaherpesvirus 5, Davis
Human alphaherpesvirus 2 = assay: Antiviral activity against HSV2 G infected in HEL cells by viral CPE assay; type: functional, organism-based; settings: Human alphaherpesvirus 2, strain G
Human alphaherpesvirus 1 [6] = assay: Antiviral activity against HSV1 KOS infected in HEL cells by viral CPE assay; type: functional, organism-based; settings: Human alphaherpesvirus 1, KOS
[7] = Selectivity index, ratio of cytotoxic CC50 for HEL cells to EC50 for HCMV Davis
Felid alphaherpesvirus 1 = assay: Antiviral activity against Feline herpesvirus infected in CRFK cells by viral CPE assay; type: functional, organism-based; settings: Felid alphaherpesvirus 1, CRFK
Human alphaherpesvirus 3 [8] = assay: Antiviral activity against thymidine kinase positive VZV OKa infected in HEL cells by plaque formation assay; type: functional, cell-based, Human herpesvirus 3 strain Oka vaccine; settings: Human alphaherpesvirus 3, OKa
[9] = Selectivity index, ratio of cytotoxic CC50 for HEL cells to EC50 for Vaccinia virus Lederie; type: toxicity, cell-based; settings: human, read-out: Ratio CC50/EC50
[10] = Selectivity index, ratio of cytotoxic CC50 for HEL cells to EC50 for ACV resistant HSV1 KOS
[11] = Selectivity index, ratio of cytotoxic CC50 for HEL cells to EC50 for HCMV AD169
Vaccinia virus = assay: Antiviral activity against Vaccinia virus Lederie infected in HEL cells by viral CPE assay; type: functional, organism-based; settings: Orthopoxvirus vaccinia
[12] = Selectivity index, ratio of cytotoxic CC50 for HEL cells to EC50 for Feline herpesvirus; type: toxicity, cell-based; settings: human, read-out: Ratio CC50/EC50
Human alphaherpesvirus 1 [13] = assay: Antiviral activity against thymidine kinase negative and ACV resistant HSV1 KOS infected in HEL cells by viral CPE assay; type: functional, organism-based; settings: Human alphaherpesvirus 1, KOS
[14] = Selectivity index, ratio of cytotoxic CC50 for HEL cells to EC50 for VZV 07/01
[15] = Selectivity index, ratio of cytotoxic CC50 for HEL cells to EC50 for HSV2 G
[16] = Cytotoxicity against HEL cells assessed as effect on cell morphology incubated for 3 days by microscopy; type: cell-based; settings: human
[17] = test system: Human immunodeficiency virus 1; assay: Antiviral activity against HIV1 3B infected in human CEM cells assessed as reduction in virus-induced CEM giant cell formation incubated for 4 days at 37 degC by microscopy; type: functional, organism-based; settings: CCRF-CEM
Punta Toro virus = assay: Antiviral activity against Punta Toro virus by viral CPE assay; type: functional, organism-based
[18] = test system: Human immunodeficiency virus 2; assay: Antiviral activity against HIV2 ROD infected in human CEM cells assessed as reduction in virus-induced CEM giant cell formation incubated for 4 days at 37 degC by microscopy; type: functional, organism-based; settings: ISOLATE ROD, CCRF-CEM
[19] = test system: Respiratory syncytial virus; assay: Antiviral activity against Respiratory syncytial virus Long by viral CPE assay; type: functional, organism-based
Sindbis virus = assay: Antiviral activity against Sindbis virus by viral CPE assay; type: functional, organism-based
Coxsackievirus B4 = assay: Antiviral activity against Human coxsackievirus B4 by viral CPE assay; type: functional, organism-based
[20] = test system: Vesicular stomatitis virus; assay: Antiviral activity against VSV by viral CPE assay; type: functional, organism-based
[21] = test system: Mammalian orthoreovirus 1; assay: Antiviral activity against Reovirus 1 by viral CPE assay; type: functional, organism-based
Human respirovirus 3 = assay: Antiviral activity against Human parainfluenza virus 3 by viral CPE assay; type: functional, organism-based
Human alphaherpesvirus 3 [22] = assay: Antiviral activity against thymidine kinase positive VZV YS infected in HEL cells by plaque formation assay; type: functional, organism-based; settings: Human alphaherpesvirus 3, YS
Human alphaherpesvirus 3 [23] = assay: Antiviral activity against thymidine kinase negative VZV YS/R infected in HEL cells by plaque formation assay; type: functional, organism-based; settings: Human alphaherpesvirus 3, YS/R
[24] = Selectivity index, ratio of cytotoxic CC50 for HEL cells to EC50 for VZV YS

Compound | EC50 (Human betaherpesvirus 5 [1]) [µM] | EC50 (Human alphaherpesvirus 3 [2]) [µM] | CC50 (HEL) [µM] | EC50 (Human betaherpesvirus 5 [5]) [µM] | EC50 (Human alphaherpesvirus 2) [µM] | EC50 (Human alphaherpesvirus 1 [6]) [µM] | EC50 (Felid alphaherpesvirus 1) [µM] | EC50 (Human alphaherpesvirus 3 [8]) [µM] | EC50 (Vaccinia virus) [µM] | EC50 (Human alphaherpesvirus 1 [13]) [µM] | MCC at 72 h [16] [µM] | Activity [17] | Activity (Punta Toro virus) | Activity [18] | Activity [19] | Activity (Sindbis virus) | Activity (Coxsackievirus B4) | Activity [20] | Activity [21] | Activity (Human respirovirus 3) | further results
Nc1nc2c(ncn2C[C@H]2COP(=O)(O)CO2)c(=O)[nH]1 | 1.5 | 0.23 | 17 | 1.6 | 0.66 | 0.66 | 0.9 | 0.1 | 1 | 0.5 | > 100 |  |  |  |  |  |  |  |  |  | Ratio CC50/EC50 [3]: 26; Ratio CC50/EC50 [4]: 170; Ratio CC50/EC50 [7]: 11; selectivity ratio [9]: 17; Ratio CC50/EC50 [10]: 34; Ratio CC50/EC50 [11]: 11; selectivity ratio [12]: 96; Ratio CC50/EC50 [14]: 74; Ratio CC50/EC50 [15]: 26
Nc1nc2c(ncn2COCCO)c(=O)[nH]1 [ACYCLOVIR] |  |  | 918 |  | 0.38 | 0.53 |  |  | > 1000 | ≥ 212 | > 444 |  |  |  |  |  |  |  |  |  | 
CCCCCCCCCCCCCCCCOCCCOP(=O)(O)CO[C@H](CO)Cn1cnc2c(=O)[nH]cnc21 | > 34 |  | 66 | 15.2 | > 6.8 | > 6.8 | > 34 | > 6.8 | > 6.8 | > 6.8 | ≥ 34 | inactive | inactive | inactive | inactive | inactive | inactive | inactive | inactive | inactive | 
CCCCCCCCCCCCCCCCOCCCOP(=O)(CCOCCn1cnc2c(=O)[nH]cnc21)OCCCOCCCCCCCCCCCCCCCC | > 23.4 | > 23.4 | 117 | > 23.4 | > 117 | > 117 | > 23.4 | > 23.4 | > 117 | > 117 | ≥ 117 | inactive | inactive | inactive | inactive | inactive | inactive | inactive | inactive | inactive | 
CCCCCCCCCCCCCCCCOCCCOP(=O)(O)CCOCCn1cnc2c(=O)[nH]cnc21 | > 35 | > 35 | 78 | > 35 | > 35 | > 35 | > 35 | > 35 | > 35 | > 35 | 175 | inactive | inactive | inactive | inactive | inactive | inactive | inactive | inactive | inactive | 
O=c1[nH]c(=O)n([C@H]2C[C@H](O)[C@@H](CO)O2)cc1/C=C/Br [BRIVUDINE] |  | 53 | 347 |  | 105 | 0.038 |  |  |  | ≥ 183 | > 300 |  |  |  |  |  |  |  |  |  | EC50 (Human alphaherpesvirus 3 [22]): 0.006 µM; EC50 (Human alphaherpesvirus 3 [23]): ≥ 120 µM
CCCCCCCCCCCCCCCCOCCCOP(=O)(O)CCOCCn1cnc2c(=O)[nH]c(N)nc21 | 0.13 | 0.3 | 26 | 0.06 | 1.9 | 1.37 | > 171 | 0.14 | ≥ 34 | 2.8 | ≥ 34 | inactive | inactive | inactive | inactive | inactive | inactive | inactive | inactive | inactive | Ratio CC50/EC50 [24]: 137; Ratio CC50/EC50 [3]: 19; Ratio CC50/EC50 [4]: 186; EC50 (Human alphaherpesvirus 3 [22]): 0.19 µM; Ratio CC50/EC50 [7]: 433; selectivity ratio [9]: < 1; Ratio CC50/EC50 [10]: 9; Ratio CC50/EC50 [11]: 200; Ratio CC50/EC50 [14]: 87; Ratio CC50/EC50 [15]: 14
CCCCCCCCCCCCCCCCOCCCOP(=O)(O)CO[C@H](CO)Cn1cnc2c(=O)[nH]c(N)nc21 | 0.0066 | 0.0017 | 0.72 | 0.0022 | 0.007 | 0.008 | > 1.33 | 0.002 | 0.011 | 0.012 | ≥ 1.3 | inactive | inactive | inactive | inactive | inactive | inactive | inactive | inactive | inactive | Ratio CC50/EC50 [24]: 288; Ratio CC50/EC50 [3]: 90; Ratio CC50/EC50 [4]: 360; EC50 (Human alphaherpesvirus 3 [22]): 0.0025 µM; Ratio CC50/EC50 [7]: 327; selectivity ratio [9]: 65; Ratio CC50/EC50 [10]: 60; Ratio CC50/EC50 [11]: 109; Ratio CC50/EC50 [14]: 423; Ratio CC50/EC50 [15]: 103
Nc1ccn(C[C@@H](CO)OCP(=O)(O)O)c(=O)n1 [CIDOFOVIR] | 1.37 |  | 241 |  |  | 0.93 |  |  | 14 | 1.75 | > 317 |  |  |  |  |  |  |  |  |  | 
CCCCCCCCCCCCCCCCOCCCOP(=O)(CO[C@H](CO)Cn1cnc2c(=O)[nH]cnc21)OCCCOCCCCCCCCCCCCCCCC | > 23 | > 4.6 | > 115 | > 23 | > 115 | > 115 | > 115 | > 23 | > 115 | > 115 | ≥ 23 | inactive | inactive | inactive | inactive | inactive | inactive | inactive | inactive | inactive | 
Nc1nc(O)c2ncn(COC(CO)CO)c2n1 [GANCICLOVIR] |  |  | 231 |  | 0.029 |  | 1.15 |  | ≥ 93 |  | > 394 |  |  |  |  |  |  |  |  |  | 
CCCCCCCCCCCCCCCCOCCCOP(=O)(CCOCCn1cnc2c(=O)[nH]c(N)nc21)OCCCOCCCCCCCCCCCCCCCC | > 23 | > 23 | > 115 | > 23 | > 115 | > 115 | > 115 | > 23 | > 115 | > 115 | ≥ 23 | inactive | inactive | inactive | inactive | inactive | inactive | inactive | inactive | inactive | 
CCCCCCCCCCCCCCCCOCCCOP1(=O)CO[C@@H](Cn2cnc3c(=O)[nH]cnc32)CO1 (mixture of isomers) | > 7 | > 1.4 | > 176 | > 7 | > 7 | > 7 | > 176 | > 1.4 | > 7 | > 7 | ≥ 7 | inactive | inactive | inactive | inactive | inactive | inactive | inactive | inactive | inactive | 

— ChEMBL document CHEMBL2062419, “Synthesis and antiviral activities of hexadecyloxypropyl prodrugs of acyclic nucleoside phosphonates containing guanine or hypoxanthine and a (S)-HPMP or PEE acyclic moiety” (Eur J Med Chem, 2012)
